According to article PMC13379085 (PLOS Neglected Tropical Diseases, 2026):

Target: T1, lysozyme (Homo sapiens, UniProt P61626)
T1 sequence (P61626 19-148): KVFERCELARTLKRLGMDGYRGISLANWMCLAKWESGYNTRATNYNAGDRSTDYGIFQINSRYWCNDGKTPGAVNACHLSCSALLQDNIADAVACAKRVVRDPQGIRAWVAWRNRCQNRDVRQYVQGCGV
Assay: Thermal proteome profiling (TPP) in Leishmania infected macrophage lysate
Assay type: binding
Parameters: endogenous in cells; host or cells: PMA-differentiated THP-1 macrophages infected with L. mexicana (lysate)
Conditions: 100 µM 197 in L. mexicana infected THP-1 lysate
Experimental: To generate cell lysate, ten million THP-1 cells were plated overnight in a 10 cm dish, then differentiated with 150 nM phorbol 12-myristate 13-acetate (PMA) for 72 hours. The resulting macrophages were infected with L. mexicana promastigotes at a multiplicity of infection of 10 and incubated for 18 hours. After infection, cells were washed three times with PBS to remove extracellular promastigotes. Cells were then collected by scraping and pelleted with centrifugation. The cell pellet was resuspended in phosphate buffered saline and subjected to five freeze-thaw cycles. Samples were centrifuged 14,000g x 10 minutes to remove cellular debris. Protein concentration of supernatant was determined by BCA assay and cell lysate was stored at -80 ° C until further use.
The cell lysate was divided into two portions. One portion was spiked with 197 in DMSO to generate the ‘with ligand’ sample; and the other portion was spiked with DMSO to generate the ‘without ligand’ sample. The final concentration of 197 in the ‘with ligand’ sample was 100 µM, and both the without and with ligand samples contained 1% DMSO. The with and without samples were each subjected five replicate one-pot TPP analyses like that previously described. […]

## O=C(CNCc1cccc(F)c1)Nc1ccc(-n2cc(C(F)(F)F)nc2-c2ccc(-c3ccc(C(F)(F)F)cc3)cc2)cc1 [Compound 197]
  TPP z-score for lysozyme: 4.32
